Patent US20100311714A1, “1H-IMIDAZO[4,5-c]QUINOLINONE COMPOUNDS” (priority 2009, published 2010)
Read-outs that look alike come from different tables or passages of the source.

Columns and labels:
[1] = Parallel Artificial Membrane Permeability Assay (PAMPA) at pH 6.8; assay type: physicochemical
Method in brief: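 Reported as log Pe, membrane permeability was determined by parallel artificial membrane assay at pH 6.8 per Wohnsland–Faller.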

mTOR = biological target: T1, mTOR (Homo sapiens, UniProt P42345); assay: Biochemical assay for m-TOR by TR-FRET
T1 construct: purchased Invitrogen Corporation (Carlsbad/Calif., USA) PV4753
T1 sequence (P42345 1360-2549 limits assumed): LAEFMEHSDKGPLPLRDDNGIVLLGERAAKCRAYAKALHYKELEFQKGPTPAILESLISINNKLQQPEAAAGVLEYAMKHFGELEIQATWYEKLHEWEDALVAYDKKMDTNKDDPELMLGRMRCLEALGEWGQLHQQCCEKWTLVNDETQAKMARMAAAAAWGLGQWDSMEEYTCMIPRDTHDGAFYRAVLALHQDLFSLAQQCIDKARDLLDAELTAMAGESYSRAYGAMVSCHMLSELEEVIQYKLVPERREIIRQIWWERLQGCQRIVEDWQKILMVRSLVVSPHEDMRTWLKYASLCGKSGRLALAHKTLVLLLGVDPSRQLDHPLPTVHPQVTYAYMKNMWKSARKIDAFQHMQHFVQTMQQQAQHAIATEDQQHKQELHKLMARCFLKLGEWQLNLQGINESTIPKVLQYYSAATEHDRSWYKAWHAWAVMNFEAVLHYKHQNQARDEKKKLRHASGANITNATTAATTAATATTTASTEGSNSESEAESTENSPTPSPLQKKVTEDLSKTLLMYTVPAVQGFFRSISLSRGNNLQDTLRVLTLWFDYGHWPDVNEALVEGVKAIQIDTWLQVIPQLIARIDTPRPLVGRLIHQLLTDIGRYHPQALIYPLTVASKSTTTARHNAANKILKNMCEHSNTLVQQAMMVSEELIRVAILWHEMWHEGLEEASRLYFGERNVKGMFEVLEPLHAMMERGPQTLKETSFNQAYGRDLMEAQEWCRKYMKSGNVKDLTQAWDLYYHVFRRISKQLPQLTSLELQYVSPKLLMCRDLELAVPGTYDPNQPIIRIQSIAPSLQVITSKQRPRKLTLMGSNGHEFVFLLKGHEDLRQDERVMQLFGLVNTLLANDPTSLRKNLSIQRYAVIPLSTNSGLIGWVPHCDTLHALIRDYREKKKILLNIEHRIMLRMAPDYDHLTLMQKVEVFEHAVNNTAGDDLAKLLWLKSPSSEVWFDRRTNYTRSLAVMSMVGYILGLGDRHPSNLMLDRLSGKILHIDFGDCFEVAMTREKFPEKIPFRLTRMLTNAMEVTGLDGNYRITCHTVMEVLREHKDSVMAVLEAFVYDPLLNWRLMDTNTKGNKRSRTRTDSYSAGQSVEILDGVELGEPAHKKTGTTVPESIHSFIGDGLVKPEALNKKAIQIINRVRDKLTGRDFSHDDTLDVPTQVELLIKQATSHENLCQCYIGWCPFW
Method in brief: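 mTOR (0.5 nM) phosphorylates GFP-4EBP1 (400 nM) with 8 μM ATP at rt in 50 mM HEPES pH 7.5, 10 mM MnCl2, 50 mM NaCl, 1 mM EGTA, 1 mM DTT; compounds 0.003–10 μM final. EDTA stop with Tb-anti-p4EBP1[pT46] antibody (0.5 nM); TR-FRET read after 15 min against no-enzyme and vehicle controls.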

[2] = system: PKB Ser473 phosphorylation in Rat1-myr-HA-p110 delta cells; assay: Reverse protein array, PKB Ser473 phosphorylation in Rat1-myr-HA-p110 delta cells; assay type: cell-based; details: Rattus norvegicus, 0.5 h, 30 minutes compound incubation, read-out: p-PKB/IC50_delta

SMILES | HT-Perm logPe pH6.8 [1] | IC50 (mTOR; read-out: EPK_mTOR/IC50) [nM] | IC50 [2] [nM] | HT-perm/logPe pH6.8 [1] | IC50 (mTOR; read-out: mTOR/IC50) [nM]
CCNc1cc(-c2ccc3ncc4c(c3c2)n(-c2ccc(N3CC(O)C3)nc2C)c(=O)n4C)cnc1CO [Example 29.2, 8-(5-Ethylamino-6-hydroxymethyl-pyridin-3-yl)-1-[6-(3-hydroxy-azetidin-1-yl)-2-methyl-pyridin-3-yl]-3-methyl-1,3-dihydro-imidazo[4,5-c]quinolin-2-one] | −7.1 | 5 | 39.7 | – | –
CNc1ncc(-c2ccc3ncc4c(c3c2)n(-c2ncccc2C)c(=O)n4C)cn1 [Example 3.4, 3-Methyl-8-(2-methylamino-pyrimidin-5-yl)-1-(3-methyl-pyridin-2-yl)-1,3-dihydro-imidazo[4,5-c]quinolin-2-one] | – | – | 742 | −4.7 | 607
COc1cc(-c2ccc3ncc4c(c3c2)n(-c2cccnc2C)c(=O)n4C)cnc1C(OC)OC [Example 2.27, 8-(6-Dimethoxymethyl-5-methoxy-pyridin-3-yl)-3-methyl-1-(2-methyl-pyridin-3-yl)-1,3-dihydro-imidazo[4,5-c]quinolin-2-one] | −5.3 | 169 | 825 | – | –
CCOc1cc(-c2ccc3ncc4c(c3c2)n(-c2ccc(N3CCCC3)nc2C)c(=O)n4C)cnc1COC [Example 25.2, 8-(5-Ethoxy-6-methoxymethyl-pyridin-3-yl)-3-methyl-1-(2-methyl-6-pyrrolidin-1-yl-pyridin-3-yl)-1,3-dihydro-imidazo[4,5-c]quinolin-2-one] | −3.9 | 76 | 124 | – | –
Cc1nc(C(F)(F)F)ccc1-n1c(=O)n(C)c2cnc3ccc(-c4cncc(C(C)(C)O)c4)cc3c21 [Example 33.1, 8-[5-(1-Hydroxy-1-methyl-ethyl)-pyridin-3-yl]-3-methyl-1-(2-methyl-6-trifluoromethyl-pyridin-3-yl)-1,3-dihydro-imidazo[4,5-c]quinolin-2-one] | −4.5 | 92 | 43 | – | –
Cc1nc(F)ccc1-n1c(=O)n(C)c2cnc3ccc(-c4cnc5c(ccn5C)c4)cc3c21 [Example 7.2, 1-(6-Fluoro-2-methyl-pyridin-3-yl)-3-methyl-8-(1-methyl-1H-pyrrolo[2,3-b]pyridin-5-yl)-1,3-dihydro-imidazo[4,5-c]quinolin-2-one] | – | – | 69.7 | −3.7 | 17

The next compounds have a lower IC50 [2] than those just listed; values first:

HT-Perm logPe pH6.8 [1] | IC50 (mTOR; read-out: EPK_mTOR/IC50) [nM] | IC50 [2] [nM] | HT-perm/logPe pH6.8 [1] | IC50 (mTOR; read-out: mTOR/IC50) [nM] | SMILES
−5.1 | 6 | 20.7 | – | – | CNc1ncc(-c2ccc3ncc4c(c3c2)n(-c2ccc(N3CCC(O)C3)nc2C)c(=O)n4C)cn1 (stereo not drawn) [Example 27.2, 1-[6-(3-Hydroxy-pyrrolidin-1-yl)-2-methyl-pyridin-3-yl]-3-methyl-8-(2-methylamino-pyrimidin-5-yl)-1,3-dihydro-imidazo[4,5-c]quinolin-2-one]
−4.1 | 21 | 36 | – | – | CNc1ncc(-c2ccc3ncc4c(c3c2)n(-c2ccc(C(C)(C)O)nc2C)c(=O)n4C)cc1F [Example 31.1, 8-(5-Fluoro-6-methylamino-pyridin-3-yl)-1-[6-(1-hydroxy-1-methyl-ethyl)-2-methyl-pyridin-3-yl]-3-methyl-1,3-dihydro-imidazo[4,5-c]quinolin-2-one]
−4.2 | < 6 | < 4.57 | – | – | Cc1nc(N(C)CCO)ccc1-n1c(=O)n(C)c2cnc3ccc(-c4cnc(N)c(C(F)(F)F)c4)cc3c21 [Example 26.1, 8-(6-Amino-5-trifluoromethyl-pyridin-3-yl)-1-{6-[(2-hydroxy-ethyl)-methyl-amino]-2-methyl-pyridin-3-yl}-3-methyl-1,3-dihydro-imidazo[4,5-c]quinolin-2-one]
−5.8 | < 3 | 31.4 | – | – | CCNc1cc(-c2ccc3ncc4c(c3c2)n(-c2cccnc2C)c(=O)n4C)cnc1CO [Example 2.31, 8-(5-Ethylamino-6-hydroxymethyl-pyridin-3-yl)-3-methyl-1-(2-methyl-pyridin-3-yl)-1,3-dihydro-imidazo[4,5-c]quinolin-2-one]
